Measurements: PubChem BioAssay AID2060901 (Molecular Pharmacology Branch, DTP, NCI, 2025)
One block for each compound: values may come before it.

Test system: 422866-222-R5-J1-PDC complex spheroids viability
Assay: Anticancer human tumor 422866-222-R5-J1-PDC patient-derived pancreatic adenocarcinoma cell line growth inhibition [RAS]
Settings: for viability, T/C: stronger effect = lower value
Procedure, shortened: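 Tumour cells grown as complex spheroids with HUVEC endothelial cells and mesenchymal stem cells, treated with RAS pathway inhibitor combinations. Each agent spans half-log steps from near clinical Cmax, or 10 microM where Cmax is unknown.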

[1] = curve of first compound, second compound 0.000949 µM
[2] = curve of first compound, second compound 0.003 µM
[3] = curve of first compound, second compound 0.00949 µM
[4] = curve of first compound, second compound 0.03 µM
[5] = curve of first compound, second compound 0.0949 µM
[6] = curve of first compound, second compound 0.3 µM
[7] = second compound 0.000949 µM, first compound 0.0316 µM
[8] = second compound 0.000949 µM, first compound 0.1 µM
[9] = second compound 0.003 µM, first compound 0.0316 µM
[10] = second compound 0.003 µM, first compound 0.1 µM
[11] = second compound 0.00949 µM, first compound 0.0316 µM
[12] = second compound 0.00949 µM, first compound 0.1 µM
[13] = second compound 0.03 µM, first compound 0.0316 µM
[14] = second compound 0.03 µM, first compound 0.1 µM
[15] = second compound 0.0949 µM, first compound 0.0316 µM
[16] = second compound 0.0949 µM, first compound 0.1 µM
[17] = second compound 0.3 µM, first compound 0.0316 µM
[18] = second compound 0.3 µM, first compound 0.1 µM
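Further: spheroids exposed to compounds for 7 days.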
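Wherever viability, T/C is given: 100% = DMSO vehicle control viability.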

IC50 [1]: < 0.316 nM | IC50 [2]: < 0.316 nM | IC50 [3]: < 0.316 nM | IC50 [4]: < 0.316 nM | IC50 [5]: < 0.316 nM | IC50 [6]: < 0.316 nM
Compound: CC(C)n1nc(-c2ccc3oc(N)nc3c2)c2c(N)ncnc21 + CCn1c(-c2cccnc2C(C)OC)c2c3cc(ccc31)N1CCOC(CC(NC(=O)C(C(C)C)N(C)C(=O)C3(F)CCN(C(=O)C#CC(C)(C)N(C)C)CC3)C(=O)N3CCCC(N3)C(=O)OCC(C)(C)C2)C1
viability, T/C (second compound 0.000949 µM, first compound 0.000316 µM): 26.9% | viability, T/C (second compound 0.000949 µM, first compound 0.001 µM): 24.3% | viability, T/C (second compound 0.000949 µM, first compound 0.00316 µM): 24.7% | viability, T/C (second compound 0.000949 µM, first compound 0.01 µM): 22.9% | viability, T/C [7]: 23.1% | viability, T/C [8]: 22.1% | viability, T/C (second compound 0.003 µM, first compound 0.000316 µM): 23.4% | viability, T/C (second compound 0.003 µM, first compound 0.001 µM): 18.7% | viability, T/C (second compound 0.003 µM, first compound 0.00316 µM): 21% | viability, T/C (second compound 0.003 µM, first compound 0.01 µM): 17.6% | viability, T/C [9]: 14.1% | viability, T/C [10]: 16.5% | viability, T/C (second compound 0.00949 µM, first compound 0.000316 µM): 23.4% | viability, T/C (second compound 0.00949 µM, first compound 0.001 µM): 25.9% | viability, T/C (second compound 0.00949 µM, first compound 0.00316 µM): 19.4% | viability, T/C (second compound 0.00949 µM, first compound 0.01 µM): 16.5% | viability, T/C [11]: 14.7% | viability, T/C [12]: 12.2% | viability, T/C (second compound 0.03 µM, first compound 0.000316 µM): 21.5% | viability, T/C (second compound 0.03 µM, first compound 0.001 µM): 17.6% | viability, T/C (second compound 0.03 µM, first compound 0.00316 µM): 17.5% | viability, T/C (second compound 0.03 µM, first compound 0.01 µM): 16.6% | viability, T/C [13]: 15.4% | viability, T/C [14]: 15.6% | viability, T/C (second compound 0.0949 µM, first compound 0.000316 µM): 17.8% | viability, T/C (second compound 0.0949 µM, first compound 0.001 µM): 15.4% | viability, T/C (second compound 0.0949 µM, first compound 0.00316 µM): 16.9% | viability, T/C (second compound 0.0949 µM, first compound 0.01 µM): 15.2% | viability, T/C [15]: 12.2% | viability, T/C [16]: 12.5% | viability, T/C (second compound 0.3 µM, first compound 0.000316 µM): 15.4% | viability, T/C (second compound 0.3 µM, first compound 0.001 µM): 18.8% | viability, T/C (second compound 0.3 µM, first compound 0.00316 µM): 15.2% | viability, T/C (second compound 0.3 µM, first compound 0.01 µM): 15.1% | viability, T/C [17]: 12.3% | viability, T/C [18]: 10.2%

IC50 [1]: < 31.6 nM | IC50 [2]: < 31.6 nM | IC50 [3]: < 31.6 nM | IC50 [4]: < 31.6 nM | IC50 [5]: < 31.6 nM | IC50 [6]: < 31.6 nM
Compound: CC1(O)CCCC1n1c(=O)c(C(F)F)cc2cnc(NC3CCN(S(C)(=O)=O)CC3)nc21 (centres undefined) + CCn1c(-c2cc(N3CCN(C)CC3)cnc2C(C)OC)c2c3cc(ccc31)-c1csc(n1)CC(NC(=O)C1CC1C)C(=O)N1CCCC(N1)C(=O)OCC(C)(C)C2
viability, T/C [7]: 30% | viability, T/C [8]: 30.3% | viability, T/C (second compound 0.000949 µM, first compound 0.316 µM): 34.5% | viability, T/C (second compound 0.000949 µM, first compound 1 µM): 34% | viability, T/C (second compound 0.000949 µM, first compound 3.16 µM): 38% | viability, T/C (second compound 0.000949 µM, first compound 10 µM): 40.2% | viability, T/C [9]: 27.9% | viability, T/C [10]: 25.8% | viability, T/C (second compound 0.003 µM, first compound 0.316 µM): 26.4% | viability, T/C (second compound 0.003 µM, first compound 1 µM): 30.1% | viability, T/C (second compound 0.003 µM, first compound 3.16 µM): 32.5% | viability, T/C (second compound 0.003 µM, first compound 10 µM): 49.2% | viability, T/C [11]: 23% | viability, T/C [12]: 20.7% | viability, T/C (second compound 0.00949 µM, first compound 0.316 µM): 22.4% | viability, T/C (second compound 0.00949 µM, first compound 1 µM): 23.3% | viability, T/C (second compound 0.00949 µM, first compound 3.16 µM): 26% | viability, T/C (second compound 0.00949 µM, first compound 10 µM): 28.8% | viability, T/C [13]: 18.8% | viability, T/C [14]: 19.8% | viability, T/C (second compound 0.03 µM, first compound 0.316 µM): 22.8% | viability, T/C (second compound 0.03 µM, first compound 1 µM): 20.4% | viability, T/C (second compound 0.03 µM, first compound 3.16 µM): 29.8% | viability, T/C (second compound 0.03 µM, first compound 10 µM): 44.2% | viability, T/C [15]: 19.3% | viability, T/C [16]: 22.8% | viability, T/C (second compound 0.0949 µM, first compound 0.316 µM): 21.2% | viability, T/C (second compound 0.0949 µM, first compound 1 µM): 24% | viability, T/C (second compound 0.0949 µM, first compound 3.16 µM): 24.9% | viability, T/C (second compound 0.0949 µM, first compound 10 µM): 47% | viability, T/C [17]: 18.9% | viability, T/C [18]: 21.1% | viability, T/C (second compound 0.3 µM, first compound 0.316 µM): 23.3% | viability, T/C (second compound 0.3 µM, first compound 1 µM): 22.4% | viability, T/C (second compound 0.3 µM, first compound 3.16 µM): 29.6% | viability, T/C (second compound 0.3 µM, first compound 10 µM): 50.5%

IC50 (compound alone, run of 06/10/2024): < 3.16 nM | IC50 (curve of compound): < 3.16 nM
Compound: C=CC(=O)N1CCN(c2nc(OCC3CCCN3C)nc3c(F)c(-c4nc(N)cc(C)c4C(F)(F)F)c(Cl)cc23)C(C)C1 (centres undefined)
viability, T/C (compound 0.00316 µM): 28% [middle of 12 runs] | viability, T/C (compound 0.01 µM): 27.2% [middle of 12 runs] | viability, T/C (compound 0.0316 µM): 24.1% [middle of 12 runs] | viability, T/C (compound 0.1 µM): 24.8% [middle of 12 runs] | viability, T/C (compound 0.316 µM): 26.7% [middle of 12 runs] | viability, T/C (compound 1 µM): 26.5% [middle of 12 runs]

IC50 (curve of first compound, second compound 0.0316 µM): 45.2 nM | IC50 (curve of first compound, second compound 0.1 µM): 274 nM | IC50 (curve of first compound, second compound 0.316 µM): 19.8 nM | IC50 (curve of first compound, second compound 1 µM): 3.62 nM | IC50 (curve of first compound, second compound 3.16 µM): < 3.16 nM | IC50 (curve of first compound, second compound 10 µM): < 3.16 nM
Compound: O=C(c1ccc(F)c(F)c1Nc1ccc(I)cc1F)N1CC(O)([C@@H]2CCCCN2)C1 + C#Cc1c(F)ccc2cc(O)cc(-c3ncc4c(N5CC6CCC(C5)N6)nc(OCC56CCCN5CC(F)C6)nc4c3F)c12
viability, T/C (second compound 0.0316 µM, first compound 0.00316 µM): 70.1% | viability, T/C (second compound 0.0316 µM, first compound 0.01 µM): 82.2% | viability, T/C (second compound 0.0316 µM, first compound 0.0316 µM): 52.4% | viability, T/C (second compound 0.0316 µM, first compound 0.1 µM): 47.6% | viability, T/C (second compound 0.0316 µM, first compound 0.316 µM): 41.5% | viability, T/C (second compound 0.0316 µM, first compound 1 µM): 44.6% | viability, T/C (second compound 0.1 µM, first compound 0.00316 µM): 81.9% | viability, T/C (second compound 0.1 µM, first compound 0.01 µM): 71.6% | viability, T/C (second compound 0.1 µM, first compound 0.0316 µM): 65.8% | viability, T/C (second compound 0.1 µM, first compound 0.1 µM): 53.6% | viability, T/C (second compound 0.1 µM, first compound 0.316 µM): 49.1% | viability, T/C (second compound 0.1 µM, first compound 1 µM): 46.6% | viability, T/C (second compound 0.316 µM, first compound 0.00316 µM): 75.4% | viability, T/C (second compound 0.316 µM, first compound 0.01 µM): 53.2% | viability, T/C (second compound 0.316 µM, first compound 0.0316 µM): 46.7% | viability, T/C (second compound 0.316 µM, first compound 0.1 µM): 43.2% | viability, T/C (second compound 0.316 µM, first compound 0.316 µM): 34.9% | viability, T/C (second compound 0.316 µM, first compound 1 µM): 33.3% | viability, T/C (second compound 1 µM, first compound 0.00316 µM): 50% | viability, T/C (second compound 1 µM, first compound 0.01 µM): 45.3% | viability, T/C (second compound 1 µM, first compound 0.0316 µM): 31.3% | viability, T/C (second compound 1 µM, first compound 0.1 µM): 32.1% | viability, T/C (second compound 1 µM, first compound 0.316 µM): 26.9% | viability, T/C (second compound 1 µM, first compound 1 µM): 26.4% | viability, T/C (second compound 3.16 µM, first compound 0.00316 µM): 38.2% | viability, T/C (second compound 3.16 µM, first compound 0.01 µM): 26.1% | viability, T/C (second compound 3.16 µM, first compound 0.0316 µM): 24.6% | viability, T/C (second compound 3.16 µM, first compound 0.1 µM): 24% | viability, T/C (second compound 3.16 µM, first compound 0.316 µM): 19.9% | viability, T/C (second compound 3.16 µM, first compound 1 µM): 15.7% | viability, T/C (second compound 10 µM, first compound 0.00316 µM): 19.8% | viability, T/C (second compound 10 µM, first compound 0.01 µM): 17.8% | viability, T/C (second compound 10 µM, first compound 0.0316 µM): 17.9% | viability, T/C (second compound 10 µM, first compound 0.1 µM): 14% | viability, T/C (second compound 10 µM, first compound 0.316 µM): 12.2% | viability, T/C (second compound 10 µM, first compound 1 µM): 14.2%
